The results in this text go back to PubChem BioAssay (NCI).

Common to all, as to test: growth of human tumour cells (NCI), 48 h
Assay [1] has as its system CCRF-CEM leukemia.
For assay [2], the system named is EKVX NSCLC.
Assay [3] deals with M14 melanoma.
Assay [4] has as its system NCI-H226 lung.
For assay [5], the system named is NCI-H23 lung.
Assay [6] deals with OVCAR-4 ovarian.
Assay [7] relates to OVCAR-5 ovarian.
The subject of assay [8] is SNB-75 CNS.
Assay [9] has as its system U251 CNS.
Assay [10] deals with UO-31 renal.

Several values for one entry are separate records, joined by “and”; a condition that tells them apart may be missing. Equal entries are not always repeated.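 1) Cells in 96-well plates. 2) Compound, 48 h, 5 concentrations. 3) Linear interpolation between surrounding doses. 4) Unreached endpoint = highest concentration. Here, GI50 denotes the concentration required for 50% inhibition of growth. At the TGI there is no net growth.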 Where only a bound is given, the exact number is not on record here.

For the compound `Oc1ccc(Br)cc1C=Nc1ccc(N=Cc2cc(Br)ccc2O)cc1`, the TGI in [1], in assay [2], in [3], in [4], in assay [5] and in [6] was above 100 µM throughout. The TGI in assay [7], in assay [8], in assay [9] and in [10] was above 100 µM each time.
Take `O=C(N/N=C/c1ccc([N+](=O)[O-])o1)c1ccc(O)cc1`: the GI50 in assay [1] is 0.804 µM; in assay [2], 8.46 µM; in assay [3], 3.67 µM; in assay [4], 12.7 µM; in assay [5], 2.97 µM; in assay [6], 1.72 µM. Further, the GI50 is 9.32 µM in assay [7], 17.4 µM in assay [8], 5.17 µM in assay [9] and 23.7 µM in [10]. For the same compound, the TGI was 70.5 µM in assay [1]; 42.9 µM in assay [2]; 11.3 µM in assay [3]; above 100 µM in assay [4]; 11.4 µM in assay [5]; 4.51 µM in assay [6]. Further, the TGI in assay [7] is above 100 µM; in assay [8], 83.2 µM; in [9], above 100 µM; in assay [10] it was above 100 µM.
As to `C[C@H]1CCC/C=C/[C@@H]2C[C@H](O)C[C@H]2[C@H](O)[C@@H](SCC(O)CO)CC(=O)O1` (some centres not stated), the GI50 in [1] is 34.1 µM; in assay [2], 27.7 µM; in assay [3], 12.4 µM; in assay [4], 18.7 µM; in [5], 17.8 µM; in assay [6], 4.17 µM. For the same compound, the GI50 was 41.1 µM in [7], 6.77 µM in [8], 42.3 µM in assay [9] and 21.4 µM in assay [10]. For the same compound, the TGI was above 100 µM in [1]; above 100 µM in assay [2]; above 100 µM in assay [3]; 44 µM in assay [4]; 60.5 µM in assay [5]; above 100 µM in [6]. The TGI was above 100 µM in [7], above 100 µM in assay [8], above 100 µM in [9] and 71 µM in [10].
With `Cn1c(=O)c2c(ncn2CC(=O)Nc2ccc(-c3ccccc3)nn2)n(C)c1=O`, the GI50 in [1] was above 100 µM; in assay [2] it was above 100 µM; in [3], 10.4 µM; in assay [4] it was above 100 µM; in [5], above 100 µM; in [6], above 100 µM. The GI50 in [7], in assay [8], in assay [9] and in assay [10] was above 100 µM each time. The TGI in [1], in assay [2], in assay [3], in assay [4], in assay [5] and in assay [6] was above 100 µM throughout. The TGI in assay [7], in assay [8], in assay [9] and in assay [10] was above 100 µM in each case.
Consider `CCCCCCCCCCN1CCC(N2CCCCC2)CC1`, for which the GI50 in assay [1] was 2.08 µM; in [2] it was 4.37 µM; in [3], 1.72 µM; in [4], 7.55 µM; in assay [5], 3.35 µM; in assay [6], 6.61 µM. The GI50 in assay [7] is 3.74 µM; in assay [8] it was 2.06 µM; in assay [9] it was 1.51 µM; in assay [10] it was 1 µM. Moreover, the TGI is 9.48 µM in [1]; 18.3 µM in [2]; 23.4 µM in assay [4]; 14.5 µM in assay [5]; 20.7 µM in [6]; 14.4 µM in assay [7]. Also, the TGI in [8] is 6.12 µM; in assay [9], 4.47 µM; in [10], 2.8 µM.
In the case of `O=C(N/N=C/c1c(Cl)cccc1Cl)c1ccc(C(F)(F)F)nc1Nc1cccc(C(F)(F)F)c1`, the GI50 was 0.34 µM in [1]; 0.886 µM in assay [2]; 1.6 µM in [3]; 1.53 µM in assay [4]; 1.42 µM in [5]; 0.466 µM in assay [6]. In addition, the GI50 was 4.06 µM in [7], 2.46 µM in assay [8], 0.588 µM in assay [9] and 1.49 µM in assay [10]. Moreover, the TGI in assay [1] was 8.98 µM; in [2], above 27.9 µM; in assay [3] it was above 31.1 µM; in assay [4], 6.74 µM; in assay [5], above 21.8 µM; in assay [6], above 100 µM. In addition, the TGI was above 30.2 µM in assay [7], 54.6 µM in assay [8], 12.8 µM in assay [9] and 5.82 µM in assay [10].
As for `Nc1ccc2nc3n(c2c1)C(=O)c1ccccc1-3`, the TGI in assay [1], in assay [2], in [3], in assay [4], in assay [5] and in assay [6] was above 100 µM each time. Further, the TGI in assay [7], in assay [8], in assay [9] and in [10] was above 100 µM in each case.
As to `Cc1ccc(S(=O)(=O)NC(=O)NC2=NC(C)(C)N(c3ccc(Cl)c(Cl)c3)C(N)=N2)cc1`, the TGI in assay [1], in assay [2], in assay [3], in assay [4], in assay [5] and in assay [6] was above 100 µM each time. In addition, the TGI in assay [7], in assay [8], in [9] and in assay [10] was above 100 µM each time.
Take `Cc1ncc([N+](=O)[O-])n1CCNS(=O)(=O)CCCn1ncnc1[N+](=O)[O-]`: the TGI in assay [1], in assay [2], in [3], in [4], in assay [5] and in [6] was above 100 µM in each case. The TGI in [7], in assay [8], in assay [9] and in [10] was above 100 µM each time.
For `O=C(Nc1ccc(Cl)c(Cl)c1)Nc1ccccc1O`, the GI50 in [1] was 3.35 µM; in [2], 18.2 µM; in [3] it was 17.7 µM; in assay [4] it was 15.9 µM; in assay [5], 2.98 µM; in assay [6], 5.44 µM. Further, the GI50 in assay [7] was 15.7 µM; in assay [8], 13.7 µM; in assay [9] it was 6.41 µM; in assay [10], 2.48 µM. The TGI is 68.7 µM in [1]; 61.5 µM in assay [2]; 61.9 µM in assay [3]; 53.7 µM in [4]; 16.1 µM in assay [5]; above 100 µM in assay [6]. For the same compound, the TGI came out at 53.2 µM in assay [7], 50.5 µM in assay [8], 25.3 µM in assay [9] and 18.4 µM in [10].
For the compound `CCCCCc1ccc(S(=O)(=O)Nc2cc(-c3csc(NC(C)=O)n3)ccc2N2CCN(C)CC2)cc1`, the GI50 in assay [1] was 4.82 µM; in assay [2] it was 5.65 µM; in assay [3], 2 µM; in assay [4], 4.94 µM; in assay [5], 4.78 µM; in [6] it was 5.44 µM. In addition, the GI50 in assay [7] was 5 µM; in [8], 3.67 µM; in assay [9], 3.78 µM; in assay [10], 3.53 µM. Besides, the TGI in assay [1] amounted to 20.3 µM; in [2], 10.7 µM; in [3] it was 7.73 µM; in [4] it was 10.7 µM; in assay [5] it was 9.53 µM; in [6], 10.3 µM. For the same compound, the TGI was determined as 9.55 µM in assay [7], 7.98 µM in assay [8], 8.93 µM in [9] and 7.57 µM in assay [10].
As for `O=c1[nH]c(=O)n([C@H]2CCCO2)cc1F`, the GI50 in [1] is 527 µM; in assay [2] it was above 2060 µM; in [3], 1450 µM; in assay [4], 3650 µM; in [5], 936 µM; in assay [7] it was 2660 µM. In addition, the figures for the GI50 in assay [8] and in [9] were above 5000 µM and above 4570 µM, respectively. The TGI in [1] was above 5000 µM; in [2], above 5000 µM; in assay [3], above 5000 µM; in assay [4], 720 µM and > 5000 µM; in assay [5], above 5000 µM; in [6], above 5000 µM. In addition, the TGI in assay [7] was above 5000 µM; in assay [8], 826 µM and > 5000 µM; in assay [9], above 5000 µM; in assay [10], above 5000 µM.
Take `CC1CN1c1c(C(=O)/C=C/c2ccc(Cl)cc2)c(-c2ccccc2)nn(C)c1=O` (configuration not stated): the TGI is 5.2 µM in assay [1]; above 10 µM in assay [2]; 5.63 µM in [3]; above 10 µM in [4]; 6.97 µM in assay [5]; 7.52 µM in assay [6]. Moreover, the TGI in assay [7] was above 10 µM; in assay [8] it was 8.28 µM; in [9] it was 5.36 µM; in assay [10] it was above 10 µM.
For `COC(=O)c1cccc2cccc(C(=O)Nc3ccc(Cl)cc3)c12`, the TGI in assay [1] is above 67.1 µM; in [2] it was above 100 µM; in assay [3], above 100 µM; in assay [4], above 100 µM; in assay [5], above 100 µM; in assay [6], above 100 µM. The TGI in [7], in [8], in [9] and in assay [10] was above 100 µM each time.
